Tested on: Daudi cells (AID positive)
Assay: Compound primary screening: cell death in AID positive Daudi cells (Cell-Titer Glo, Day 7)
Type: cell-based
Conditions: Homo sapiens, 168 h; Daudi cells, AID positive; cell death on Day 7, Cell-Titer Glo; read-out: Cellular activity in AID + (Daudi)
Method: Example 149. Compound Primary Screening
AID expressing cells are dependent upon RAD51 for survival; inhibiting RAD51 in AID positive cells results in a cytotoxic effect.
A 96 well u-bottom plate was prepared by writing the experiment number, plate number, date and initials in the top right corner of the plate lid. With a sterile 300 ml reservoir, and 25 ml serological pipette, evaporation buffer media was pipetted into reservoir in 25 ml increments. Using the liquid handler, 150 ul of evaporation buffer media was pipetted from reservoir into rows A and H, and Columns 1 and 12 of the 96 well u-bottom plate. Cell cultures were counted to obtain the density of cells per ml, and the culture viability. The cell density information was used to obtain 1,000,000 cells from culture using a 5 mL serological pipette into an epi tube. The cell density information from the culture was used to calculate the number of cells and volume of media needed for the assay to seed 1250 cells in 130 ul of media per available culture well in the 96 well u-bottom plate. Rows B through F were used for cells (50 wells in total), with row G left for an empty media control. The calculation was overestimated by 10 mL to account for the dead volume in the 300 ml reservoir. Once the media volume was calculated, the appropriate volume of media was pipetted in 25 mL increments into the 250 mL bottle using a 25 mL serological pipette. The 250 ml bottle was capped tightly, and placed into a 37° C. water bath for 2 minutes. While the culture media was warming, 10 mL of fresh media was pipetted from the 500 mL culture media bottle into a sterile 25 mL reservoir. Using the Eppendorf multichannel pipette, 130 ul of media was pipetted from the 25 mL reservoir into row G of the 96 well u-bottom plate. Once the 250 mL bottle of media was warmed, the volume of culture needed was pipetted into the bottle, and mixed gently with a 25 mL serological pipette as to not create bubbles, and then the contents of the bottle were pipetted into a new 300 mL reservoir. Using the liquid handler, 130 ul of culture was pipetted from the 300 mL reservoir into rows B through F of the 96 well u-bottom plate. Once the culture was added, the plate was placed into a 37° C. incubator until the compound master plate was prepared for use.
Two 96 well u-bottom plates were prepared by writing the master plate name in the upper right corner of the plate lid. Labeling one DMSO master and the other Media Master. The compounds of interest were obtained from the laboratory freezer, and placed into a 25 well storage box with a lid, and set the box aside. The compounds were vortexed after thawing but before use. Using an automatic multichannel pipette, 20 ul of 100% DMSO was pipetted into wells B3-B11 through G3-G11 of the DMSO master plate. For each compound on the master plate, 50 ul of the compound were pipetted in the appropriate well of row 2 (reference plate map to determine appropriate well). A serial dilution was prepared beginning by aspirating 20 ul from row 2 and mixing with row 3, repeating until row 11 was reached. Using the liquid handler, 194 ul of Daudi media was dispensed into wells B2-B11 through G2-G11 of the Media master plate. Using the liquid handler, 6 ul from the DMSO master plate was aspirated and dispensed into the media master plate, mixing 100 ul twice.
Compounds from master plate were then added to the culture plate. The culture plates were removed from the incubator, and set inside the biosafety cabinet. Using a liquid handler, 20 ul from wells B2 to B11 through G2 to G11 of master plate were aspirated, and dispensed into wells B2 to B11 through G2 to G11 of culture plate. This set was continued with each culture plate. Once the culture plates acquired their 20 ul of compound dilutions, they were placed back into the incubator, until their reads on Day 7 of experiment.
Cell death was measured on Day 7 of the experiment using Cell-Titer Glo and a Promega Plate reader.

SMILES	EC50 [nM]
CCNS(=O)(=O)c1cc(COCC(C)C)ccc1-c1cnc([C@H]2CC[C@H](NC(=O)OC3COC3)CC2)s1 [Compound 52, oxetan-3-yl trans-N-[4-[5-[2-(ethylsulfamoyl)-4-(isobutoxy-methyl)phenyl]thiazol-2-yl]cyclohexyl]carbamate]	100 to 1000
CC(C)OC(=O)N[C@H]1CC[C@H](c2ncc(-c3ccc(C#N)cc3S(=O)(=O)N3CCC3)s2)CC1 [Compound 54, isopropyl trans-N-[4-[5-[2-(azetidin-1-ylsulfonyl)-4-cyano-phenyl]thiazol-2-yl]cyclohexyl]carbamate]	1000 to 10000
CCNS(=O)(=O)c1cc(Nc2ncc[nH]2)ccc1-c1cnc([C@H]2CC[C@H](NC(=O)OC(C)C)CC2)s1 [Compound 56, isopropyl trans-N-[4-[5-[2-(ethylsulfamoyl)-4-(1H-imidazol-2-ylamino)phenyl]thiazol-2-yl]cyclohexyl]carbamate]	< 100
CCNS(=O)(=O)c1cc(CC(=O)NC(C)C)ccc1-c1cnc([C@H]2CC[C@H](NC(=O)OC(C)C)CC2)s1 [Compound 58, isopropyl trans-N-[4-[5-[2-(ethylsulfamoyl)-4-[2-(isopropylamino)-2-oxo-ethyl]phenyl]thiazol-2-yl]cyclohexyl]carbamate]	100 to 1000
CCNS(=O)(=O)c1cc(CC(=O)NC(C)C)ccc1-c1cnc([C@H]2CC[C@H](NC(=O)OC3COC3)CC2)s1 [Compound 59, oxetan-3-yl (trans-4-(5-(2-(N-ethylsulfamoyl)-4-(2-(isopropylamino)-2-oxoethyl)phenyl)thiazol-2-yl)cyclohexyl)carbamate]	100 to 1000
CCNS(=O)(=O)c1cc(Nc2ncco2)ccc1-c1cnc([C@H]2CC[C@H](NC(=O)OC(C)C)CC2)s1 [Compound 60, isopropyl (trans-4-(5-(2-(N-ethylsulfamoyl)-4-(oxazol-2-ylamino)phenyl)thiazol-2-yl)cyclohexyl)carbamate]	< 100
CCNS(=O)(=O)c1cc(C(=O)O)ccc1-c1cnc([C@H]2CC[C@H](NC(=O)OC3COC3)CC2)s1 [Compound 66, trans-3-(ethylsulfamoyl)-4-[2-[4-(oxetan-3-yloxy-carbonylamino)cyclohexyl]thiazol-5-yl]benzoic acid]	1000 to 10000
CCNS(=O)(=O)c1cc(C(N)=O)ccc1-c1cnc([C@H]2CC[C@H](NC(=O)OC3COC3)CC2)s1 [Compound 67, oxetan-3-yl trans-N-[4-[5-[4-carbamoyl-2-(ethylsulfamoyl)phenyl]thiazol-2-yl]cyclohexyl]carbamate]	1000 to 10000
CCNS(=O)(=O)c1cc(C(=O)NC(C)C)ccc1-c1cnc([C@H]2CC[C@H](NC(=O)OC3COC3)CC2)s1 [Compound 68, oxetan-3-yl (trans-4-(5-(2-(N-ethylsulfamoyl)-4-(isopropylcarbamoyl)phenyl)thiazol-2-yl)cyclohexyl)carbamate]	100 to 1000
CCNS(=O)(=O)c1cc(NC2(C(C)C)COC2)ccc1-c1cnc([C@H]2CC[C@H](NC(=O)OC(C)C)CC2)s1 [Compound 69, isopropyl trans-N-[4-[5-[2-(ethylsulfamoyl)-4-[(3-isopropyloxetan-3-yl)amino]phenyl]thiazol-2-yl]cyclohexyl]carbamate]	< 100
CCNS(=O)(=O)c1cc(NC2(CC(C)C)COC2)ccc1-c1cnc([C@H]2CC[C@H](NC(=O)OC(C)C)CC2)s1 [Compound 70, isopropyl trans-N-[4-[5-[2-(ethylsulfamoyl)-4-[(3-isobutyloxetan-3-yl)amino]phenyl]thiazol-2-yl]cyclohexyl]carbamate]	100 to 1000
CCNS(=O)(=O)c1cc(C(=O)OC)ccc1-c1cnc([C@H]2CC[C@H](NC(=O)OC(C)C)CC2)s1 [Compound 71, methyl trans-3-(ethylsulfamoyl)-4-[2-[4-(isopropoxycarbonyl-amino)cyclohexyl]thiazol-5-yl]benzoate]	1000 to 10000
CCNS(=O)(=O)c1cc(CO)ccc1-c1cnc([C@H]2CC[C@H](NC(=O)OC(C)C)CC2)s1 [Compound 72, isopropyl trans-N-[4-[5-[2-(ethylsulfamoyl)-4-(hydroxymethyl)phenyl]thiazol-2-yl]cyclohexyl]carbamate]	1000 to 10000
CCNS(=O)(=O)c1cc(CNc2ncc[nH]2)ccc1-c1cnc([C@H]2CC[C@H](NC(=O)OC(C)C)CC2)s1 [Compound 73, isopropyl trans-N-[4-[5-[2-(ethylsulfamoyl)-4-[(1H-imidazol-2-ylamino)methyl]phenyl]thiazol-2-yl]cyclohexyl]carbamate]	1000 to 10000
CCNS(=O)(=O)c1cc(CNc2ncco2)ccc1-c1cnc([C@H]2CC[C@H](NC(=O)OC(C)C)CC2)s1 [Compound 74, isopropyl trans-N-[4-[5-[2-(ethylsulfamoyl)-4-[(oxazol-2-ylamino)methyl]phenyl]thiazol-2-yl]cyclohexyl]carbamate]	100 to 1000
CCNS(=O)(=O)c1cc(-c2ncc[nH]2)ccc1-c1cnc([C@H]2CC[C@H](NC(=O)OC(C)C)CC2)s1 [Compound 75, isopropyl trans-N-[4-[5-[2-(ethylsulfamoyl)-4-(1H-imidazol-2-yl)phenyl]thiazol-2-yl]cyclohexyl]carbamate]	1000 to 10000
CCNS(=O)(=O)c1cc(CC(=O)OC)ccc1-c1cnc([C@H]2CC[C@H](NC(=O)OC(C)C)CC2)s1 [Compound 76, methyl trans-2-[3-(ethylsulfamoyl)-4-[2-[4-(isopropoxycarbonylamino)cyclohexyl]thiazol-5-yl]phenyl]acetate]	1000 to 10000
CCNS(=O)(=O)c1cc(CC(=O)O)ccc1-c1cnc([C@H]2CC[C@H](NC(=O)OC(C)C)CC2)s1 [Compound 77, trans-2-[3-(ethylsulfamoyl)-4-[2-[4-(isopropoxycarbonyl-amino)cyclohexyl]thiazol-5-yl]phenyl]acetic Acid]	1000 to 10000
CCNS(=O)(=O)c1cc(Cc2ncc[nH]2)ccc1-c1cnc([C@H]2CC[C@H](NC(=O)OC(C)C)CC2)s1 [Compound 78, isopropyl trans-N-[4-[5-[2-(ethylsulfamoyl)-4-(1H-imidazol-2-ylmethyl)phenyl]thiazol-2-yl]cyclohexyl]carbamate]	1000 to 10000
CCNS(=O)(=O)c1cc(CC(=O)NCc2ccccc2)ccc1-c1cnc([C@H]2CC[C@H](NC(=O)OC(C)C)CC2)s1 [Compound 79, isopropyl trans-N-[4-[5-[4-[2-(benzylamino)-2-oxo-ethyl]-2-(ethyl-sulfamoyl)phenyl]thiazol-2-yl]cyclohexyl]carbamate]	< 100
CCNS(=O)(=O)c1cc(CC(=O)N(C)C(C)C)ccc1-c1cnc([C@H]2CC[C@H](NC(=O)OC(C)C)CC2)s1 [Compound 80, isopropyl trans-N-[4-[5-[4-[2-(isopropyl(methyl)amino)-2-oxo-ethyl]-2-(ethyl-sulfamoyl)phenyl]thiazol-2-yl]cyclohexyl]carbamate]	100 to 1000
CCNS(=O)(=O)c1cc(CC(=O)N(C)Cc2ccccc2)ccc1-c1cnc([C@H]2CC[C@H](NC(=O)OC(C)C)CC2)s1 [Compound 81, isopropyl trans-N-[4-[5-[4-[2-(benzyl(methyl)amino)-2-oxo-ethyl]-2-(ethyl-sulfamoyl)phenyl]thiazol-2-yl]cyclohexyl]carbamate]	100 to 1000
CCNS(=O)(=O)c1cc(CC(=O)N2CCCC2)ccc1-c1cnc([C@H]2CC[C@H](NC(=O)OC(C)C)CC2)s1 [Compound 82, isopropyl trans-N-[4-[5-[4-[2-oxo-2-(pyrrolidin-1-yl)ethyl]-2-(ethyl-sulfamoyl)phenyl]thiazol-2-yl]cyclohexyl]carbamate]	100 to 1000
CCNS(=O)(=O)c1cc(CC(=O)N2CCCCC2)ccc1-c1cnc([C@H]2CC[C@H](NC(=O)OC(C)C)CC2)s1 [Compound 83, isopropyl trans-N-[4-[5-[4-[2-oxo-2-(piperidin-1-yl)ethyl]-2-(ethyl-sulfamoyl)phenyl]thiazol-2-yl]cyclohexyl]carbamate]	100 to 1000
